Assay results as given in patent US12479818B2, “Treatment of fibrosis with IRE1 small molecule inhibitors” (Cornell University, priority 2019, dated 2025).

What follows are molecules tested against IRE1a (Homo sapiens, UniProt O75460) (assay: IRE1a Endoribonuclease Nanoluciferase Assay (XBP1 luciferase reporter in 293T cells)). Details: XBP1 nanoluciferase reporter in 293T cells, ER stressor; tested as the salt named.
Format: cell-based
Parameters: endogenous in cells; host or cells: 293T
Description: Compounds disclosed herein were assessed for disruption of IRE1 signaling using a IRE1a Endoribonuclease Nanoluciferase Assay. […] About 24 hours later, the cells were transfected with Effectene. In a 15 mL tube, the following was added: 2 ug XBP1 luciferase reporter plasmid (PGK-Luc2-P2A-XBP1u-Nanoluciferase-PEST); 300 ul EC buffer; and 16 ul Enhancer, followed by incubation at room temp for 5 minutes. […] 2.6 mL cDMEM media was added. Old media was aspirated from the cells, followed by addition of 7 mL fresh media. Full transfection mixture was added dropwise to cells. Cells were incubated for 6 hours, followed by trypsinization, centrifugation and resuspension in 11 mL fresh cDMEM media. 100 μL of cells were plated per a well in a 96 well plate. A day later, ER stressors of choice +/− inhibitors were added. To harvest, media was aspirated from cells completely, then 50 uL 1× passive lysis buffer (Promega: E1941) was added per well and put on shaker (300 rpm) for 30 minutes at room temperature. […] 15 uL OneGlo (nanoluciferase kit, Promega N1630) was added. Plates were spun down, placed on shaker (300 rpm) for 10 minutes. Plates were read on luminometer, 1000 ms integration time per well. 15 uL Stop and Glo (nanoluciferase kit) was added. Plates were spun down, placed on shaker (300 rpm) for 10 minutes. Plates were read on luminometer, 1000 ms second integration time per well.

IRE1a, sequence (O75460 19-977): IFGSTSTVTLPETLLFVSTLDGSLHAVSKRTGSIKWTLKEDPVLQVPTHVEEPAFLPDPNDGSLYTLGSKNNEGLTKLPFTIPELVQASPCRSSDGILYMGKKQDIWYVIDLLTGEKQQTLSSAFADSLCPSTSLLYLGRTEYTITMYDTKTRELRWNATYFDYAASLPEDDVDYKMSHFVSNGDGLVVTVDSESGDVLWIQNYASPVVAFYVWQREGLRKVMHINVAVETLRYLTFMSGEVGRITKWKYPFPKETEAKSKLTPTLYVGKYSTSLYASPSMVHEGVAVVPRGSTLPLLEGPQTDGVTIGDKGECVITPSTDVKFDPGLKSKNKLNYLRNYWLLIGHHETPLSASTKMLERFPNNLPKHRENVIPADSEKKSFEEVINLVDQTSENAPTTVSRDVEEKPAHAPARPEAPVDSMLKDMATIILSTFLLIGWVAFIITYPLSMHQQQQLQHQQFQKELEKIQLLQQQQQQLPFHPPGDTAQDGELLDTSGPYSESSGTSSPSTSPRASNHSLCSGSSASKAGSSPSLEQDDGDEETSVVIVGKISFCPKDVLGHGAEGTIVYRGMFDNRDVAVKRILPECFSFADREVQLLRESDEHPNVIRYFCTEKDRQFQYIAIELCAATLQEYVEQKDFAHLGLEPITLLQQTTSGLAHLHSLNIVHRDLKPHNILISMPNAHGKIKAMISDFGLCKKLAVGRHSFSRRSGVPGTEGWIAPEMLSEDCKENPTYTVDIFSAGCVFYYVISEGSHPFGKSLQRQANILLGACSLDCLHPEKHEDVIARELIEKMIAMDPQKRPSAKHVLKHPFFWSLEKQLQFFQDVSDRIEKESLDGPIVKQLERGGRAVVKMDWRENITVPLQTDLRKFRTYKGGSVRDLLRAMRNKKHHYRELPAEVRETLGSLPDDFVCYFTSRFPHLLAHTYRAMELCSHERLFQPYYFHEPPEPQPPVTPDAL

EC50 [nM] | SMILES
< 5 | CCc1cc(-c2ccc(NS(=O)(=O)c3ccccc3Cl)nc2OC)cc2cnc(N[C@H]3CC[C@H](N(C)C)CC3)nc12 [Compound 99, 2-chloro-N-(5-(2-(((1r,4r)-4-(dimethylamino)cyclohexyl)amino)-8-ethylquinazolin-6-yl)-6-methoxypyridin-2-yl)benzenesulfonamide]
< 5 | CCc1cc(-c2ccc(NS(=O)(=O)c3ccccc3Cl)nc2OC)cc2cnc(N[C@H]3CC[C@H](NC)CC3)nc12 [Compound 116, 2-chloro-N-(5-(8-ethyl-2-(((1r,4r)-4-(methylamino)cyclohexyl)amino)quinazolin-6-yl)-6-methoxypyridin-2-yl)benzenesulfonamide]
< 5 | CCc1nc(NS(=O)(=O)c2ccccc2Cl)ccc1-c1cc(CC)c2nc(N[C@H]3CC[C@H](N(C)C)CC3)ncc2c1 [Compound 117, 2-chloro-N-(5-(2-(((1r,4r)-4-(dimethylamino)cyclohexyl)amino)-8-ethylquinazolin-6-yl)-6-ethylpyridin-2-yl)benzenesulfonamide]
< 5 | CCc1cc(-c2ccc(NS(=O)(=O)c3ccccc3C)nc2OC)cc2cnc(N[C@H]3CC[C@H](N(C)C)CC3)nc12 [Compound 119, N-(5-(2-(((1r,4r)-4-(dimethylamino)cyclohexyl)amino)-8-ethylquinazolin-6-yl)-6-methoxypyridin-2-yl)-2-methylbenzenesulfonamide]
< 5 | COc1nc(NS(=O)(=O)c2ccccc2Cl)ccc1-c1cc(C)c2nc(N[C@H]3CC[C@H](N(C)C)CC3)ncc2c1 [Compound 133, 2-chloro-N-(5-(2-(((1r,4r)-4-(dimethylamino)cyclohexyl)amino)-8-methylquinazolin-6-yl)-6-methoxypyridin-2-yl)benzenesulfonamide]
< 5 | COCc1cc(-c2ccc(NS(=O)(=O)c3ccccc3Cl)nc2OC)cc2cnc(N[C@H]3CC[C@H](N(C)C)CC3)nc12 [Compound 137, 2-chloro-N-(5-(2-(((1r,4r)-4-(dimethylamino)cyclohexyl)amino)-8-(methoxymethyl)quinazolin-6-yl)-6-methoxypyridin-2-yl)benzenesulfonamide]
100 to 10000 | CCc1cc(-c2ccc(NS(=O)(=O)c3ccccc3Cl)nc2OC)cc2cnc(N[C@H]3CC[C@@H](N(C)C)CC3)nc12 [Compound 141, 2-chloro-N-(5-(2-(((1s,4s)-4-(dimethylamino)cyclohexyl)amino)-8-ethylquinazolin-6-yl)-6-methoxypyridin-2-yl)benzenesulfonamide]
< 5 | COc1nc(NS(=O)(=O)c2ccccc2Cl)ccc1-c1cc(F)c2nc(N[C@H]3CC[C@H](N(C)C)CC3)ncc2c1 [Compound 148, 2-chloro-N-(5-(2-(((1r,4r)-4-(dimethylamino)cyclohexyl)amino)-8-fluoroquinazolin-6-yl)-6-methoxypyridin-2-yl)benzenesulfonamide]

Continued, molecule first:

SMILES | EC50 [nM]
COc1nc(NS(=O)(=O)c2ccccc2Cl)ccc1-c1cc2cnc(N[C@H]3CC[C@H](N(C)C)CC3)nc2cc1C [Compound 108, 2-chloro-N-(5-(2-(((1r,4r)-4-(dimethylamino)cyclohexyl)amino)-7-methylquinazolin-6-yl)-6-methoxypyridin-2-yl)benzenesulfonamide] | < 5
CCc1cc(-c2ccc(NS(=O)(=O)c3ccccc3C)nc2OC)cc2cnc(NC3CCC(NC)CC3)nc12 (stereo not shown) [Compound 118, N-(5-(8-ethyl-2-(((1r,4r)-4-(methylamino)cyclohexyl)amino)quinazolin-6-yl)-6-methoxypyridin-2-yl)-2-methylbenzenesulfonamide] | < 5
CCc1cc(-c2ccc(NS(=O)(=O)c3ccccc3Cl)nc2C)cc2cnc(N[C@H]3CC[C@H](NC)CC3)nc12 [Compound 122, 2-chloro-N-(5-(8-ethyl-2-(((1r,4r)-4-(methylamino)cyclohexyl)amino)quinazolin-6-yl)-6-methylpyridin-2-yl)benzenesulfonamide] | < 5
COc1nc(NS(=O)(=O)c2ccccc2Cl)ccc1-c1cc(C(C)(F)F)c2nc(N[C@H]3CC[C@H](N(C)C)CC3)ncc2c1 [Compound 124, 2-chloro-N-(5-(8-(1,1-difluoroethyl)-2-(((1r,4r)-4-(dimethylamino)cyclohexyl)amino)quinazolin-6-yl)-6-methoxypyridin-2-yl)benzenesulfonamide] | < 5
CCc1cc(-c2ccc(NS(=O)(=O)c3ccccc3Cl)nc2C)cc2cnc(NC3CCC(N(C)CC)CC3)nc12 (stereo not shown) [Compound 125, 2-chloro-N-(5-(8-ethyl-2-(((1r,4r)-4-(ethyl(methyl)amino)cyclohexyl)amino)quinazolin-6-yl)-6-methylpyridin-2-yl)benzenesulfonamide] | < 5
CCc1cc(-c2cc(F)c(NS(=O)(=O)c3ccccc3Cl)nc2OC)cc2cnc(NC3CCC(NC)CC3)nc12 (stereo not shown) [Compound 127, 2-chloro-N-(5-(8-ethyl-2-(((1r,4r)-4-(methylamino)cyclohexyl)amino)quinazolin-6-yl)-3-fluoro-6-methoxypyridin-2-yl)benzenesulfonamide] | < 5
CCc1cc(-c2cc(F)c(NS(=O)(=O)c3ccccc3Cl)nc2OC)cc2cnc(N[C@H]3CC[C@H](N(C)C)CC3)nc12 [Compound 128, 2-chloro-N-(5-(2-(((1r,4r)-4-(dimethylamino)cyclohexyl)amino)-8-ethylquinazolin-6-yl)-3-fluoro-6-methoxypyridin-2-yl)benzenesulfonamide] | < 5
CCc1cc(-c2ccc(NS(=O)(=O)c3ccccc3Cl)nc2C)cc2cnc(N[C@H]3CC[C@H](N(C)CC4CCC4)CC3)nc12 [Compound 130, 2-chloro-N-(5-(2-(((1r,4r)-4-((cyclobutylmethyl)(methyl)amino)cyclohexyl)amino)-8-ethylquinazolin-6-yl)-6-methylpyridin-2-yl)benzenesulfonamide] | < 5
Cc1nc(NS(=O)(=O)c2ccccc2Cl)ccc1-c1cc(C(C)(F)F)c2nc(N[C@H]3CC[C@H](N(C)C)CC3)ncc2c1 [Compound 131, 2-chloro-N-(5-(8-(1,1-difluoroethyl)-2-(((1r,4r)-4-(dimethylamino)cyclohexyl)amino)quinazolin-6-yl)-6-methylpyridin-2-yl)benzenesulfonamide] | < 5
CCc1cc(-c2ccc(NS(=O)(=O)c3ccccc3Cl)nc2C)cc2cnc(N[C@H]3CC[C@H](N(C)CCOC)CC3)nc12 [Compound 132, 2-chloro-N-(5-(8-ethyl-2-(((1r,4r)-4-((2-methoxyethyl)(methyl)amino)cyclohexyl)amino)quinazolin-6-yl)-6-methylpyridin-2-yl)benzenesulfonamide] | < 5
COc1nc(NS(=O)(=O)c2ccccc2Cl)ccc1-c1cc(C(F)(F)F)c2nc(N[C@H]3CC[C@H](N(C)C)CC3)ncc2c1 [Compound 135, 2-chloro-N-(5-(2-(((1r,4r)-4-(dimethylamino)cyclohexyl)amino)-8-(trifluoromethyl)quinazolin-6-yl)-6-methoxypyridin-2-yl)benzenesulfonamide] | < 5
COc1nc(NS(=O)(=O)c2ccccc2Cl)c(F)cc1-c1cc(C)c2nc(N[C@H]3CC[C@H](N(C)C)CC3)ncc2c1 [Compound 145, 2-chloro-N-(5-(2-(((1r,4r)-4-(dimethylamino)cyclohexyl)amino)-8-methylquinazolin-6-yl)-3-fluoro-6-methoxypyridin-2-yl)benzenesulfonamide] | < 5
COc1nc(NS(=O)(=O)c2ccccc2Cl)c(F)cc1-c1ccc2nc(N[C@H]3CC[C@H](N(C)C)CC3)ncc2c1 [Compound 149, 2-chloro-N-(5-(2-(((1r,4r)-4-(dimethylamino)cyclohexyl)amino)quinazolin-6-yl)-3-fluoro-6-methoxypyridin-2-yl)benzenesulfonamide] | 5 to 50
CN[C@H]1CC[C@H](Nc2ncc3cc(-c4cc(F)c(NS(=O)(=O)c5ccccc5Cl)nc4OC)ccc3n2)CC1 [Compound 150, 2-chloro-N-(3-fluoro-6-methoxy-5-(2-(((1r,4r)-4-(methylamino)cyclohexyl)amino)quinazolin-6-yl)pyridin-2-yl)benzenesulfonamide] | 5 to 50
CCc1cc(-c2ccc(NS(=O)(=O)c3ccccc3Cl)nc2C)cc2cnc(N[C@@H]3CC[C@@H](N(C)C)C[C@@H]3F)nc12 [Compound 151, 2-chloro-N-(5-(2-(((1R,2S,4R)-4-(dimethylamino)-2-fluorocyclohexyl)amino)-8-ethylquinazolin-6-yl)-6-methylpyridin-2-yl)benzenesulfonamide] | < 5
CCc1cc(-c2ccc(NS(=O)(=O)c3cccc(Cl)c3Cl)nc2C)cc2cnc(N[C@H]3CC[C@H](N(C)C)CC3)nc12 [Compound 152, 2,3-dichloro-N-(5-(2-(((1r,4r)-4-(dimethylamino)cyclohexyl)amino)-8-ethylquinazolin-6-yl)-6-methylpyridin-2-yl)benzenesulfonamide] | < 5
Cc1nc(NS(=O)(=O)c2ccccc2Cl)c(F)cc1-c1ccc2nc(N[C@H]3CC[C@H](N(C)C)CC3)ncc2c1 [Compound 153, 2-chloro-N-(5-(2-(((1r,4r)-4-(dimethylamino)cyclohexyl)amino)quinazolin-6-yl)-3-fluoro-6-methylpyridin-2-yl)benzenesulfonamide] | 5 to 50
